In PubChem BioAssay (NCI):
“And” between values parts separate entries of the source, which are not always exact repeats. Equal entries are not always repeated.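 A five-concentration, 48-hour dose response in 96-well plates underlies each endpoint, interpolated linearly between surrounding concentrations. Here, GI50 denotes the concentration required for 50% inhibition of growth. TGI is the concentration that stops growth completely.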

Legend:
Test in all cases: NCI tumour cell line growth inhibition, 48 h
LOX IMVI melanoma = system: LOX IMVI melanoma
NCI-H226 lung = system: NCI-H226 lung
MDA-MB-435 = system: MDA-MB-435
CAKI-1 renal = system: CAKI-1 renal
HOP-92 NSCLC = system: HOP-92 NSCLC
SK-OV-3 ovarian = system: SK-OV-3 ovarian
NCI-H23 lung = system: NCI-H23 lung
SF-268 CNS = system: SF-268 CNS
SNB-75 CNS = system: SNB-75 CNS
DU-145 prostate = system: DU-145 prostate

Structure (SMILES) | GI50 (LOX IMVI melanoma) | TGI (LOX IMVI melanoma) | GI50 (NCI-H226 lung) | TGI (NCI-H226 lung) | GI50 (MDA-MB-435) | TGI (MDA-MB-435) | GI50 (CAKI-1 renal) | TGI (CAKI-1 renal) | GI50 (HOP-92 NSCLC) | TGI (HOP-92 NSCLC) | GI50 (SK-OV-3 ovarian) | TGI (SK-OV-3 ovarian) | GI50 (NCI-H23 lung) | TGI (NCI-H23 lung) | GI50 (SF-268 CNS) | TGI (SF-268 CNS) | GI50 (SNB-75 CNS) | TGI (SNB-75 CNS) | GI50 (DU-145 prostate) | TGI (DU-145 prostate)
CN1CCN(CCCOc2cccc3nc(Nc4ccc(F)c(F)c4)ccc23)CC1 | 1.03 µM | 3.36 µM | 5.51 µM | 11.1 µM | 1.27 µM | 5.14 µM | 4.45 µM | 9.35 µM | 1.43 µM | 5.74 µM | 4.39 µM | 8.87 µM | 4.67 µM | 9.29 µM | 4.46 µM | 9.74 µM | 3.92 µM | 9.5 µM | 4.32 µM | 8.67 µM
CCOC(=O)C#Cc1c(C(=O)OCC)nnn1[C@@H]1O[C@H](CO)[C@H]2OC3(CCCCC3)O[C@H]21 | 1.31 µM | 2.83 µM | 1.72 µM | 3.17 µM | 4.49 µM | 16 µM | 1.76 µM | 3.31 µM | 2.23 µM | 5.27 µM | 17.7 µM | 33.3 µM | 10.1 µM | 28.4 µM | 14.3 µM | 34.6 µM | 11.5 µM | 24.2 µM | 3.89 µM | 13.6 µM
OC(COc1ccccc1)CN1CCCCC1 (configuration not stated) |  | > 100 µM |  | > 100 µM |  | > 100 µM |  | > 100 µM |  | > 100 µM |  | > 100 µM |  | > 100 µM |  | > 100 µM |  | > 100 µM |  | > 100 µM
O=C(Oc1ccccc1)C(Br)C(Br)c1ccccc1 (configuration not stated) | 1.9 µM | 4 µM | 5 µM | 18.7 µM | 1.62 µM | 3.09 µM | 1.65 µM | 3.06 µM | 2.73 µM | 7.52 µM | 15.9 µM | 29.3 µM | 7.2 µM | 24.3 µM | 4.15 µM | 15.2 µM | 15.7 µM | 30.1 µM | 3.18 µM | 9.38 µM
CCc1nn2ncccc2c1-c1ccnc(NC2CC2)n1 | > 25 µM | > 25 µM | 20.2 µM | > 25 µM | > 25 µM | > 25 µM | > 22.1 µM | > 25 µM | > 6.73 µM | > 25 µM | > 25 µM | > 25 µM | > 25 µM | > 25 µM | > 25 µM | > 25 µM | > 25 µM | > 25 µM | > 25 µM | > 25 µM
COc1cc(Nc2ncnc(Nc3ccc4c(n3)NC(=O)C(C)(C)O4)n2)cc(OC)c1OC | 0.633 µM | > 100 µM | 0.297 µM | > 100 µM | 2.09 µM | > 100 µM | 0.319 µM | > 100 µM | 0.243 µM | 1.71 µM | 0.929 µM |  | 2.59 µM | > 100 µM | 0.544 µM | > 100 µM | 0.169 µM | 0.724 µM | 2.03 µM | > 100 µM
CNCCCNc1c2ccccc2nc2cccc([N+](=O)[O-])c12 |  | 0.016 µM |  | 0.0521 µM |  | 0.00324 µM |  | 0.0271 µM |  | 0.00423 µM |  | 0.0427 µM |  | 0.00564 µM |  | 0.0166 µM and 0.0211 µM |  | 0.0142 µM |  | 0.0192 µM
Cc1c(C)c2c(c(C)c1OCC(=O)O)CC[C@@](C)(CCC[C@@H](C)CCC[C@@H](C)CCCC(C)C)O2 | 78.7 µM | 216 µM | 89 µM | 244 µM | 72.6 µM | 142 µM | 76.7 µM | 151 µM | 58.6 µM | 137 µM | 76.8 µM | 148 µM | 75.7 µM | 200 µM | 87.8 µM | 196 µM | 69.9 µM | 141 µM | 75.7 µM | 147 µM
CCOc1ccc(C(C)=O)cc1NC(=O)c1cccc(-c2nnn(CC)n2)c1 | 0.59 µM | 70.2 µM | 11.2 µM | > 100 µM | 0.308 µM | 2.34 µM | 0.939 µM | > 100 µM | 0.418 µM | 49.4 µM | 0.689 µM | 24.8 µM | 0.646 µM | 19 µM | 0.901 µM | > 100 µM | 0.209 µM | 12.7 µM | 1.07 µM | > 100 µM
C[C@H](NC(=O)c1c(C(F)F)nn(C)c1Oc1cccc(C(F)(F)F)c1)c1ccc(C(=O)O)cc1 | > 100 µM | > 100 µM | > 100 µM | > 100 µM | > 100 µM | > 100 µM | > 100 µM | > 100 µM | 6.94 µM | > 100 µM | > 100 µM | > 100 µM | > 100 µM | > 100 µM | > 100 µM | > 100 µM | > 100 µM | > 100 µM | > 100 µM | > 100 µM
COc1ccc(-c2n[nH]nc2-c2cc(OC)c3c(c2)OCO3)cc1 | 0.0649 µM | 16 µM | 0.83 µM | > 100 µM | < 0.01 µM |  | 0.0237 µM | 58.5 µM | 0.16 µM | 22.2 µM | 0.0294 µM | 2.08 µM | 0.0314 µM | 29.6 µM | 0.087 µM | > 62.3 µM | 0.0128 µM | 1.72 µM | 0.0328 µM | 1.19 µM
NC(CSC(c1ccccc1)(c1ccccc1)c1ccc(F)cc1)C(=O)O (configuration not stated) | 0.891 µM | > 100 µM | 5.64 µM | > 76.3 µM | 0.251 µM | 0.654 µM | 0.79 µM | > 26.8 µM | 0.701 µM | 29.3 µM | 0.348 µM | 24.1 µM | 0.657 µM | > 28.3 µM | 0.505 µM | 35.1 µM | 1.74 µM |  | 0.815 µM | 4.05 µM
CCc1nc2cc(/C=C/C(=O)NO)ccc2c(=O)n1CCc1ccc(OC)cc1 | 1.68 µM | 3.19 µM | 2.87 µM | 17.3 µM | 2.7 µM | 42.6 µM | 2.98 µM | 10.7 µM | 1.9 µM | 5.7 µM | 2.42 µM | 6.11 µM | 2.4 µM | 7.89 µM | 2.44 µM | 13.1 µM | 2.62 µM | 33.2 µM | 2.19 µM | 10.3 µM
